“And” between values parts separate entries of the source, which are not always exact repeats. Equal entries are not always repeated. Where two headings read alike, the source gives them in different places.
What was measured:
Format in all cases: cell-based
[1] = tested on: human embryonic stem cells line H1; conditions: for type of insulin expressing cells formed: 500 nM, after six days; for GCG (glucagon expressing cells), percentage of the total cell population / INS (single insulin expressing cells), percentage of the total cell population / INS/GCG (insulin and glucagon co-expressing cells), percentage of the total cell population / Synaptophysin, percentage of the total cell population: Stage 4 six days, TPB 500 nM, ILV 500 nM, GÖ 6976 5 μM, FACS
Procedure: Other protein kinase C activators were also tested. These were Indolactam V (ILV) (Axxora; Cat #ALX-420-011-C300) and phorbol-12-myristate-13-acetate (PMA) (Calbiochem; Cat #524400).

[2] = tested on: human embryonic stem cells line H1; assay: Immunocytochemistry of insulin and glucagon expression after Stage 4 TPB treatment (Example 1)
Procedure: Cells of the human embryonic stem cells line H1 were cultured on MATRIGEL® (1:30 dilution) (BD Biosciences; Cat #356231)-coated dishes with RPMI medium (Invitrogen; Cat #: 22400)+0.2% FBS+100 ng/ml activin A (PeproTech; Cat #120-14)+20 ng/ml WNT-3a (R&D Systems; Cat #1324-WN/CF) for one day followed by treatment with RPMI media+0.5% FBS+100 ng/ml activin A for an additional two days (Stage 1), then, • DMEM/F12 (Invitrogen; Cat #11330-032)+2% FBS+50 ng/ml FGF7 (PeproTech; Cat #100-19) for three days (Stage 2), then • DMEM-High glucose (Invitrogen; Cat #10569)+1% B27+50 ng/ml FGF7+0.25 μM Cyclopamine-KAAD (Calbiochem; Cat #239804)+100 ng/ml Noggin (R&D Systems; Cat #3344-NG) for four days (Stage 3), then • DMEM-High glucose+1% B27 (Invitrogen; Cat #0791)+100 ng/ml Noggin+1 μM ALK5 inhibitor II (Axxora; Cat #ALX-270-445)+500 nM TBP ((2S, 5S)-(E, E)-8-(5-(4-(Trifluoromethyl)phenyl)-2,4-pentadiemoylamino) benzolactam) (Calbiochem; Cat #565740) for six days (Stage 4).
As a control, separate populations of cells were treated with DMEM-High glucose+1% B27+100 ng/ml Noggin+1 μM ALK5 inhibitor II for six days (Stage 4, control group). […] Glucagon-expressing cells were also noted in the cultures that received TBP treatment. Most of the glucagon-expressing cells also co-expressed insulin (FIG. 1 panel A and B). […]

[3] = tested on: human embryonic stem cells line H1; assay: FACS after six, nine or twelve days of Stage 4 TPB treatment (Example 3); conditions: 500 nM TPB
Procedure: In another experiment, cells of the human embryonic stem cells line H1 were cultured on […]® (1:30 dilution) coated dishes with RPMI medium+0.2% FBS+100 ng/ml activin A+20 ng/ml WNT-3a for one day followed by treatment with RPMI media+0.5% FBS+100 ng/ml activin A for an additional two days (Stage 1), then • DMEM/F12+2% FBS+50 ng/ml FGF7 for three days (Stage 2), then • DMEM-High glucose+1% B27+50 ng/ml FGF7+0.25 μM Cyclopamine-KAAD+2 μM Retinoic acid (RA)+100 ng/ml of Noggin+20 ng/ml Activin A+a p38 kinase inhibitor (JNJ3026582, at 2.5 μM) for four days (Stage 3), then • Treatment 10: DMEM-High glucose+1% B27+100 ng/ml Noggin+1 μM ALK5 inhibitor II+500 nM TPB for six days (Stage 4, Treatment 10), or • Treatment 11: DMEM-High glucose+1% B27+100 ng/ml Noggin+1 μM ALK5 inhibitor II+500 nM TPB for nine days (Stage 4, Treatment 11), or • Treatment 12: DMEM-High glucose+1% B27+100 ng/ml Noggin+1 μM ALK5 inhibitor II+500 nM TPB for twelve days (Stage 4, Treatment 12)

[4] = tested on: human embryonic stem cell line H1; assay: Pancreatic endoderm marker expression after Stage 3 TPB treatment (Example 6)
Procedure: Briefly, cells of the human embryonic stem cell line H1 were cultured on MATRIGEL® (1:30 dilution) coated dishes and RPMI medium supplemented with 0.2% FBS, 100 ng/ml activin A and 20 ng/ml WNT-3a for one day, followed by treatment with RPMI media supplemented with 0.5% FBS and 100 ng/ml activin A, for an additional two days (Stage 1), then • DMEM/F12+2% FBS+50 ng/ml FGF7 for three days (Stage 2), then • T1: DMEM-High glucose+1% B27+0.25 μM Cyclopamine-KAAD+2 μM Retinoic acid (RA)+100 ng/ml of Noggin+FGF10 50 ng/ml for four days (Stage 3, T1) or, • T2: DMEM-High glucose+1% B27+0.25 μM Cyclopamine-KAAD+2 μM Retinoic acid (RA)+100 ng/ml of Noggin+FGF10 50 ng/ml+100 nM TPB for four days (Stage 3, T2), then • DMEM-High glucose+1% B27+100 ng/ml Noggin+1 μM ALK5 inhibitor II for six days (Stage 4)
NKX6.1 was undetectable by immunohistochemistry.

[5] = tested on: human embryonic stem cells line H1; assay: FACS and immunocytochemistry after Stage 4 treatment with different concentrations of TPB (Example 1); conditions: for INS, percentage of the total cell population / NKX6.1, percentage of the total cell population / NKX6.1/INS, percentage of the total cell population / Synaptophysin, percentage of the total cell population: Stage 4 six days
Procedure: In a separate experiment, cells of the human embryonic stem cells line H1 were cultured on MATRIGEL® (1:30 dilution) coated dishes with RPMI medium+0.2% FBS+100 ng/ml activin A+20 ng/ml WNT-3a for one day followed by treatment with RPMI media+0.5% FBS+100 ng/ml activin A for an additional two days (Stage 1), then • a. DMEM/F12+2% FBS+50 ng/ml FGF7 for three days (Stage 2), then • b. DMEM-High glucose+1% B27+0.25 μM Cyclopamine-KAAD+2 μM Retinoic acid (RA)+100 ng/ml of Noggin for four days (Stage 3), then • c. Treatment 1: DMEM-High glucose+1% B27+100 ng/ml Noggin+1 μM ALK5 inhibitor II+500 nM TBP for six days (Stage 4, Treatment 1), or • d. Treatment 2: DMEM-High glucose+1% B27+100 ng/ml Noggin+1 μM ALK5 inhibitor II+100 nM TBP for six days (Stage 4, Treatment 2), or • e. Treatment 3: DMEM-High glucose+1% B27+100 ng/ml Noggin+1 μM ALK5 inhibitor II+20 nM TBP for six days (Stage 4, Treatment 3), or • f. Treatment 4: DMEM-High glucose+1% B27+100 ng/ml Noggin+1 μM ALK5 inhibitor II for six days (Stage 4, Treatment 4).
Immunocytochemistry analysis was used to assess the effects of the different concentrations of TPB on the formation of the cells of the present invention. […] FACS analysis confirmed that both treatments gave rise to 12% single insulin expressing cells in vitro and […] of that population also expressed NKX6.1 (Table 1—NKX6.1/INS expressing cells were 2.4% of the total population).

[6] = cultures treated with TPB, immunocytochemistry
[7] = Stage 4 for nine days (Treatment 11)
[8] = Stage 4 for six days (Treatment 10)
[9] = Stage 4 for twelve days (Treatment 12)
[10] = 100 nM TPB at Stage 3 for four days (T2) compared to control group (T1)
[11] = both 500 nM and 100 nM TPB treatments, FACS

SMILES: CC(C)[C@H]1C(=O)N[C@H](CO)Cc2c[nH]c3cccc(c23)N1C [ILV, Indolactam V]
- type of insulin expressing cells formed ([1]; immunocytochemistry): cells co-expressing insulin and glucagon
- GCG (glucagon expressing cells), percentage of the total cell population [1]: 12% and 12.6%
- INS (single insulin expressing cells), percentage of the total cell population [1]: 3%
- INS/GCG (insulin and glucagon co-expressing cells), percentage of the total cell population [1]: 12.9%
- Synaptophysin, percentage of the total cell population [1]: 56.8%

SMILES: CCCCCCCCCCCCCC(=O)O[C@@H]1[C@@H](C)[C@@]2(O)[C@@H](C=C(CO)C[C@]3(O)C(=O)C(C)=C[C@@H]23)[C@@H]2C(C)(C)[C@]12OC(C)=O [PMA, phorbol-12-myristate-13-acetate]
- type of insulin expressing cells formed ([1]; immunocytochemistry): cells co-expressing insulin and glucagon

SMILES: CC(C)[C@H]1C(=O)N[C@H](CO)Cc2cc(NC(=O)/C=C/C=C/c3ccc(C(F)(F)F)cc3)ccc2N1C [TPB, (2S, 5S)-(E, E)-8-(5-(4-(Trifluoromethyl)phenyl)-2,4-pentadiemoylamino) benzolactam]
- type of insulin expressing cells formed ([1]; immunocytochemistry): demonstrated the formation of single insulin expressing cells
- GCG (glucagon expressing cells), percentage of the total cell population [1]: 4.6%
- INS (single insulin expressing cells), percentage of the total cell population [1]: 12%
- INS/GCG (insulin and glucagon co-expressing cells), percentage of the total cell population [1]: 7.1%
- Synaptophysin, percentage of the total cell population [1]: 30.6%
- insulin expressing cells that co-expressed NEUROD [1, 6]: majority
- insulin expressing cells that co-expressed NKX6.1 [1, 6]: 20%
- insulin expressing cells that co-expressed PDX1 [1, 6]: 20%
- insulin expressing cells that co-expressed somatostatin or ghrelin (GHRL) [1, 6]: Very few
- insulin-expressing cells ([2]; 500 nM at Stage 4 for six days with Noggin and ALK5 inhibitor II, vs control without it, immunocytochemistry): increase
- insulin expressing cells that are single endocrine hormone expressing cells (no glucagon, somatostatin, ghrelin) ([2]; 500 nM at Stage 4 for six days, share of insulin expressing cells): about 60%
- Glucagon, percentage of the total cell population [3, 7]: 6.6%
- Insulin, percentage of the total cell population [3, 7]: 10.0%
- Insulin/Glucagon, percentage of the total cell population [3, 7]: 7.8%
- NKX6.1, percentage of the total cell population [3, 7]: 33.5%
- NKX6.1/Insulin, percentage of the total cell population [3, 7]: 1.0%
- Synaptophysin, percentage of the total cell population [3, 7]: 43.5%
- Glucagon, percentage of the total cell population [3, 8]: 2.0%
- Insulin, percentage of the total cell population [3, 8]: 27.8%
- Insulin/Glucagon, percentage of the total cell population [3, 8]: 16.4%
- NKX6.1, percentage of the total cell population [3, 8]: 44.2%
- NKX6.1/Insulin, percentage of the total cell population [3, 8]: 11.0%
- Synaptophysin, percentage of the total cell population [3, 8]: 49.7%
- Glucagon, percentage of the total cell population [3, 9]: 4%
- Insulin, percentage of the total cell population [3, 9]: 4.4%
- Insulin/Glucagon, percentage of the total cell population [3, 9]: 6.3%
- NKX6.1, percentage of the total cell population [3, 9]: 32.5%
- NKX6.1/Insulin, percentage of the total cell population [3, 9]: 1.0%
- Synaptophysin, percentage of the total cell population [3, 9]: 37.6%
- NKX6.1 by immunohistochemistry ([4]; 100 nM TPB at Stage 3 for four days (T2)): undetectable
- expression of NKX6.1 [4, 10]: significant down-regulation
- expression of PDX1 [4, 10]: significant down-regulation
- expression of PTF1 alpha [4, 10]: significant down-regulation
- insulin and glucagon co-expression ([5]; 20 nM TPB, similar to the control group, immunocytochemistry): most cells co-expressed insulin and glucagon
- number of single insulin-expressing cells ([5]; 500 nM and 100 nM TPB treatment groups, immunocytochemistry): Significant increases
- INS, percentage of the total cell population ([5]; TPB 100 nM, FACS): 14.4%
- NKX6.1, percentage of the total cell population ([5]; TPB 100 nM, FACS): 34.8%
- NKX6.1/INS, percentage of the total cell population ([5]; TPB 100 nM, FACS): 3.1%
- Synaptophysin, percentage of the total cell population ([5]; TPB 100 nM, FACS): 47.6%
- INS, percentage of the total cell population ([5]; TPB 500 nM, FACS): 9.4%
- NKX6.1, percentage of the total cell population ([5]; TPB 500 nM, FACS): 45.7%
- NKX6.1/INS, percentage of the total cell population ([5]; TPB 500 nM, FACS): 2.4%
- Synaptophysin, percentage of the total cell population ([5]; TPB 500 nM, FACS): 38.3%
- single insulin expressing cells [5, 11]: 12%
- single insulin expressing population that also expressed NKX6.1 [5, 11]: 15%

— US12441985B2, “Methods for making insulin in vivo” (priority 2009, dated 2025)
